Patent US20180193336A1, “SPRAY DRY FORMULATIONS” (Pulmokine, Inc., priority 2013, published 2018)
Values joined by “and” are separate entries in the source; they are usually repeats but may differ in a detail not shown here. Equal values may be shown once.

Key:
rat MCT+PN model = test: RV pressure, PV loops and RV hypertrophy in rat MCT+PN model; type: in vivo; conditions: for RV systolic pressure: 14 days
Procedure: In a separate cohort of animals, the MCT+PN model was developed as described above, and PK10453 (Structure 2) was then administered for 4 or 8 min three times a day to the drug treated group. The vehicle control group underwent 4 min exposures three times a day. Pressure Volume (PV) loops were obtained with an admittance system (Scisense, Inc.) after 14 days of treatment, while rats were under general anesthesia with isoflurane and 100% FiO2. Also, or in the alternative, RV pressures were obtained in each group after 14 days of treatment. In a subset of each group, pressure Volume (PV) loops were obtained with an admittance system (high fidelity catheter FTE1918B, Scisense, Inc.) after 14 days of treatment. After induction of general anesthesia and intubation via tracheostomy, the rats were placed on a pressure controlled ventilator (TOPOVENT). General anesthesia consisted of isoflurane and 100% F1O2 with peak inspiratory pressure set at 18 cm, and PEEP 5 cm H2O. A left thoracotomy was performed with admittance catheter in the RV via the RV outflow tract.
At the end of the study, the heart and lungs were removed from ventilated animals under general anesthesia. Heparinized saline was infused under pressure through the main pulmonary artery. The right upper lobe was immediately tied off and placed in liquid nitrogen for Western blot and NanoPro 100 assay analysis. The heart was removed, and the RV free wall, interventricular septum and LV free wall dissected and weighed. Buffered formalin (10%) was infused under pressure both through the pulmonary artery and the trachea. Morphometric analysis was performed on H&E stained formalin fixed tissue sectioned at 8 μm. The media area and lumen area of pulmonary arterioles were measured with Image J software by a technician blinded to treatment group. Measurements were made on 20 pulmonary arterioles per section. The ratio of the lumen area to the total media area was determined. This ratio normalizes the variation in total pulmonary arteriole area. In addition, occlusive analysis was performed in the monocrotaline plus pneumonectomy study (specifically efficacy study 5) according to the method of Homma et al., “Involvement of RhoA/Rho kinase signaling in protection against monocrotaline-induced pulmonary hypertension in pneumonectomized rats by dehydroepiandrosterone.” Am J Physiol Lung Cell Mol Physiol. Vol. 295:L71-8 (2008). Briefly, pre-capillary arterioles were assigned grade 0 for no evidence of neointimal lesions, grade 1 for less than 50% luminal occlusion, and grade 2 for greater than 50% occlusion. Masson Trichrome stains were performed on lung sections from the MCT+PN model. […]

[1] = system: PDGFAA stimulated phosphorylation of ERK1 and ERK2; test: PDGFAA stimulated phosphorylation of ERK1 and ERK2 in human fetal lung fibroblasts; type: cell-based; conditions: 1 uM; PDGFAA 10 ng/ml
Text: Data shown are mean±SEM. […] PK10453=structure 2; PK10571=structure 2a. Platelet derived growth factor receptor alpha=PDGFR-alpha=PDGFR-α=PDGF receptor alpha=PDGF alpha receptor. Platelet derived growth factor receptor beta=PDGFR-beta=PDGFRβ=PDGF receptor beta=PDGF beta receptor.

[2] = Body weights of treated rats; type: in vivo, rat; conditions: D4 and D8 groups; FIG. 19
[3] = 8 min inhalation three times a day, two weeks

Procedure for rat MCT model: At the end of the study RVSP pressure was measured; lung and heart fixed in formalin. For measurement of RVSP animals were sedated with isoflurane, intubated via a tracheostomy, and ventilated with a TOPOVENT pressure regulated ventilator (peak inspiratory pressure 18 cm H20, PEEP 5 cm). After sternotomy, a Scisense high fidelity catheter inserted via the RV apex.
At the end of the study, the heart and lungs were removed from ventilated animals under general anesthesia. Heparinized saline was infused under pressure through the main pulmonary artery. […] The heart was removed, and the RV free wall, interventricular septum and LV free wall dissected and weighed. Buffered formalin (10%) was infused under pressure both through the pulmonary artery and the trachea. Morphometric analysis was performed on H&E stained formalin fixed tissue sectioned at 8 μm. The media area and lumen area of pulmonary arterioles were measured with Image J software by a technician blinded to treatment group. Measurements were made on 20 pulmonary arterioles per section. The ratio of the lumen area to the total media area was determined. This ratio normalizes the variation in total pulmonary arteriole area. […] Briefly, pre-capillary arterioles were assigned grade 0 for no evidence of neointimal lesions, grade 1 for less than 50% luminal occlusion, and grade 2 for greater than 50% occlusion.

With `COc1cc(-c2cncc(N[C@@H](C)c3cccc(NC(=O)c4cncc(C)c4)c3)n2)ccc1O` [PK10453, (S)—N-(3-(1-((6-(4-hydroxy-β-methoxyphenyl)pyrazin-2yl)amino)ethyl)phenyl)-5-methylnicotinamide] the “(RV+IVS)/LV ratio” value (rat MCT+PN model; D4) was 0.62±0.04, the RV systolic pressure (rat MCT+PN model; D4, 4 min three times a day) was 40.4±2.7 mm Hg and 40.4+2.7 mm Hg and the “(RV+IVS)/LV ratio” value (rat MCT+PN model; D8) was 0.68±0.05. The RV systolic pressure (rat MCT+PN model; D8, 8 min three times a day) was 43±3.0 mm Hg and 43.0+3.0 mm Hg, the “end diastolic volume, ejection fraction, cardiac output, stroke work, difference between groups” value (rat MCT model) was “no significant differences” and the Lumen/Media ratio (rat MCT model; 8 min exposures) was 0.94±0.08. The End systolic volume (rat MCT model; [3]) was 99.5 µL, the “RV end systolic pressure” value (rat MCT model; [3]) was 36.3±2.6 mm Hg and the “decrease of PDGF AA stimulated ppERK1 and ppERK2 formation” value [1] was “equally effective”. The “body weight compared to vehicle” value [2] was “trend to a slower rate of decline”.
